ChEMBL document CHEMBL1130376, “Effects of taxoids from Taxus cuspidata on microtubule depolymerization and vincristine accumulation in MDR cells” (Bioorg Med Chem Lett, 1997)
In brackets after ≈: the same amount, converted by molar mass.

Key:
[1] = Cytotoxicity against human epidermoid carcinoma KB cells; assay type: functional, cell-based
L1210 = assay: Cytotoxicity against murine leukemia L1210 cells; assay type: functional, cell-based, Mus musculus
[2] = Vincristine (VCR) accumulation in multidrug resistant human ovarian cancer 2780 AD cells at a concentration 1 ug/mL; assay type: functional
[3] = Vincristine (VCR) accumulation in multidrug resistant human ovarian cancer 2780 AD cells at a concentration 10 ug/mL; assay type: functional
[4] = Mus musculus, L1210, read-out: IC50

Compound	IC50 [1]	IC50 (L1210; [4])	vincristine accumulation (% of control) [2]	vincristine accumulation (% of control) [3]	IC50 (L1210; l1210)
C=C1[C@@H](OC(C)=O)CC[C@@]2(C)[C@@H](OC(C)=O)[C@H](OC(C)=O)C3=C(C)[C@@H](OC(C)=O)C[C@@H]([C@@H](OC(C)=O)[C@H]12)C3(C)C	> 10 µg/mL	> 10 µg/mL	–	–	–
C=C1[C@@H](OC(=O)/C=C/c2ccccc2)C[C@H](OC(C)=O)[C@@]2(C)[C@@H](OC(C)=O)[C@H](OC(C)=O)[C@@]3(O)C(C)=C(OC(C)=O)C[C@@H]([C@@H](OC(C)=O)[C@H]12)C3(C)C	1.8 µg/mL (≈ 2.48 µM)	3 µg/mL (≈ 4.14 µM)	133%	325%	–
CCCC(=O)NC(c1ccccc1)[C@@H](O)C(=O)O[C@H]1C[C@@]2(O)[C@@H](OC(=O)c3ccccc3)[C@@H]3[C@]4(OC(C)=O)CO[C@@H]4C[C@H](O)[C@@]3(C)C(=O)[C@H](OC(C)=O)C(=C1C)C2(C)C (stereo partly drawn)	0.016 µg/mL (≈ 0.0195 µM)	0.21 µg/mL (≈ 0.256 µM)	–	–	–
C=C1[C@@H](OC(=O)/C=C/c2ccccc2)CC[C@]2(C)[C@@H]1C[C@@H]1C[C@H](OC(C)=O)C(C)=C([C@@H](OC(C)=O)[C@@H]2OC(C)=O)C1(C)C	8.2 µg/mL (≈ 13.8 µM)	9.5 µg/mL (≈ 16 µM)	102%	517%	–
C=C1[C@@H](O)C[C@H](OC(C)=O)[C@@]2(C)[C@@H](OC(C)=O)[C@H](OC(C)=O)C3=C(C)[C@@H](OC(C)=O)C[C@@H]([C@@H](OC(C)=O)[C@H]12)C3(C)C [DECINNAMOYLTAXININE J]	> 10 µg/mL	> 10 µg/mL	207%	363%	–
CC(=O)O[C@H]1C[C@@H]2OC[C@@]2(OC(C)=O)[C@H]2[C@H](OC(=O)c3ccccc3)[C@]3(O)C[C@H](O)C(C)=C([C@@H](O)[C@H](O)[C@]12C)C3(C)C	0.08 µg/mL (≈ 0.136 µM)	0.27 µg/mL (≈ 0.459 µM)	–	–	–
CC(=O)O[C@H]1C[C@@]2(O)[C@@H](OC(C)=O)[C@@H]3[C@@]4(CO4)[C@@H](OC(C)=O)C[C@H](OC(C)=O)[C@@]3(C)[C@@H](OC(C)=O)[C@H](OC(C)=O)C(=C1C)C2(C)C	> 10 µg/mL	> 10 µg/mL	119%	135%	–
C=C1[C@@H](OC(=O)CC(c2ccccc2)N(C)C)CC[C@]2(C)[C@@H]1C[C@@H]1C[C@H](OC(C)=O)C(C)=C([C@@H](OC(C)=O)[C@@H]2OC(C)=O)C1(C)C (stereo partly drawn)	> 10 µg/mL	> 10 µg/mL	250%	882%	–
C=C1[C@@H](OC(=O)CC(c2ccccc2)N(C)C)CC[C@@]2(C)[C@@H](OC(C)=O)[C@H](OC(C)=O)C3=C(C)C(=O)C[C@@](O)([C@@H](OC(C)=O)[C@H]12)C3(C)C (stereo partly drawn)	> 10 µg/mL	2.7 µg/mL (≈ 4.04 µM)	175%	466%	–
CCCCCC(=O)NC(c1ccccc1)[C@@H](O)C(=O)O[C@H]1C[C@@]2(O)[C@@H](OC(=O)c3ccccc3)[C@@H]3[C@]4(OC(C)=O)CO[C@@H]4C[C@H](O)[C@@]3(C)C(=O)[C@H](OC(C)=O)C(=C1C)C2(C)C (stereo partly drawn)	0.0053 µg/mL (≈ 0.00625 µM)	0.21 µg/mL (≈ 0.248 µM)	–	–	–
CC(=O)OC[C@H]1[C@H]2[C@H](O)[C@]3(O)C[C@H](OC(C)=O)C(C)=C([C@@H](OC(C)=O)[C@H](OC(C)=O)[C@]2(C)[C@@H](OC(C)=O)C[C@@H]1OC(C)=O)C3(C)C	> 10 µg/mL	4.6 µg/mL (≈ 7.03 µM)	147%	208%	–
CC(=O)O[C@@]12CO[C@H]1C[C@H](O)[C@@]1(C)C(=O)[C@H](O)C3=C(C)[C@@H](O)C[C@@](O)([C@@H](OC(=O)c4ccccc4)[C@H]21)C3(C)C	> 10 µg/mL	> 10 µg/mL	153%	271%	–
C=C1[C@@H](O)C[C@H](OC(C)=O)[C@@]2(COC(=O)c3ccccc3)[C@@H](OC(C)=O)[C@H](OC(C)=O)[C@]3(O)[C@@]4(C)CO[C@]3(C)C(=O)C[C@H]4[C@@H](OC(C)=O)[C@H]12 [TAXININ M]	9.4 µg/mL (≈ 13.7 µM)	> 10 µg/mL	115%	169%	–
C=C1[C@@H](OC(=O)CC(c2ccccc2)N(C)C)CC[C@@]2(C)[C@@H](OC(C)=O)[C@H](OC(C)=O)[C@@]34[C@H](C)C(=O)C[C@@H]([C@@H](OC(C)=O)C132)C4(C)C (stereo partly drawn)	1.6 µg/mL (≈ 2.45 µM)	> 10 µg/mL	174%	567%	–
CC(=O)O[C@H]1C(=O)[C@@]2(C)[C@H]([C@H](OC(=O)c3ccccc3)[C@]3(O)C[C@H](OC(=O)[C@H](O)[C@@H](NC(=O)c4ccccc4)c4ccccc4)C(C)=C1C3(C)C)[C@]1(OC(C)=O)CO[C@@H]1C[C@@H]2O [PACLITAXEL]	–	–	83%	56%	–
C=C1[C@@H](O)C[C@H](OC(C)=O)[C@@]2(C)[C@@H](OC(C)=O)[C@H](OC(=O)c3ccccc3)C3=C(C)[C@@H](OC(C)=O)C[C@@]3(C(C)(C)O)[C@@H](OC(C)=O)[C@H]12	> 10 µg/mL	> 10 µg/mL	158%	313%	–

Compound	IC50 [1]	IC50 (L1210; [4])	vincristine accumulation (% of control) [2]	vincristine accumulation (% of control) [3]	IC50 (L1210; l1210)
CC(=O)O[C@H]1C[C@H]2[C@@H](OC(C)=O)/C=C3\C[C@](C)(C(=O)[C@H](O)C(=C1C)C2(C)C)[C@@H](OC(C)=O)C[C@@H]3OC(=O)C(O)C(c1ccccc1)N(C)C (stereo partly drawn)	> 10 µg/mL	7.1 µg/mL (≈ 10.4 µM)	119%	298%	–
C=C1[C@@H](OC(=O)/C=C/c2ccccc2)C[C@H](OC(C)=O)[C@@]2(C)[C@@H](OC(C)=O)[C@H](OC(C)=O)[C@]3(O)[C@@]4(C)CO[C@]3(C)C(=O)C[C@H]4[C@@H](OC(C)=O)[C@H]12 [TAXAGIFINE]	0.86 µg/mL (≈ 1.23 µM)	1.3 µg/mL (≈ 1.87 µM)	194%	242%	–
COc1ccc(CCN(C)CCCC(C#N)(c2ccc(OC)c(OC)c2)C(C)C)cc1OC (stereo not drawn) [VERAPAMIL]	–	–	254%	739%	–
C/C=C(\C)C(=O)O[C@@H]1C2=C(C)[C@@H](O)C[C@@]2(C(C)(C)O)[C@@H](OC(C)=O)[C@@H]2[C@]3(OC(C)=O)CO[C@@H]3C[C@H](OC(C)=O)[C@@]2(C)[C@H]1OC(C)=O	0.3 µg/mL (≈ 0.461 µM)	4 µg/mL (≈ 6.15 µM)	145%	206%	–
C=C1[C@@H](OC(=O)CC(c2ccccc2)N(C)C)CC[C@@]2(C)[C@@H](OC(C)=O)[C@H](OC(C)=O)C3=C(C)C(=O)C[C@@H]([C@@H](OC(C)=O)[C@H]12)C3(C)C (stereo partly drawn)	> 10 µg/mL	> 10 µg/mL	177%	704%	–
C=C1[C@@H](OC(=O)CC(c2ccccc2)N(C)C)C[C@H](OC(C)=O)[C@]2(C)[C@@H]1C[C@@H]1C[C@H](OC(C)=O)C(C)=C([C@@H](OC(C)=O)[C@@H]2OC(C)=O)C1(C)C (stereo partly drawn)	> 10 µg/mL	7.2 µg/mL (≈ 10.3 µM)	233%	841%	–
CC(=O)O[C@H]1C[C@H]2[C@@H](OC(C)=O)/C=C3\C[C@](C)(C(=O)[C@H](O)C(=C1C)C2(C)C)[C@@H](OC(C)=O)C[C@@H]3OC(=O)/C=C/c1ccccc1 [TAXUSPINE B]	> 10 µg/mL	> 10 µg/mL	219%	713%	–
C=C1[C@@H](O)CC[C@@]2(C)[C@@H](OC(C)=O)[C@H](OC(C)=O)C3=C(C)C(=O)C[C@@](O)([C@@H](OC(C)=O)[C@H]12)C3(C)C	0.6 µg/mL (≈ 1.22 µM)	6.2 µg/mL (≈ 12.6 µM)	152%	216%	–
C=C1[C@@H](O)C[C@H](OC(C)=O)[C@@]2(C)[C@@H](OC(C)=O)[C@H](OC(=O)c3ccccc3)C3=C(C)[C@@H](O)C[C@@]3(C(C)(C)O)[C@@H](OC(C)=O)[C@H]12 [TAXCHININ A]	0.4 µg/mL (≈ 0.651 µM)	> 10 µg/mL	143%	192%	–
C=C1[C@@H](O)C[C@H](OC(C)=O)[C@@]2(C)[C@@H](OC(C)=O)[C@H](OC(C)=O)[C@]3(O)[C@@]4(C)CO[C@]3(C)C(=O)C[C@H]4[C@@H](OC(C)=O)[C@H]12	> 10 µg/mL	> 10 µg/mL	225%	213%	–
CC(=O)O[C@@]12CO[C@@H]1C[C@H](O)[C@@]1(C)C(=O)[C@H](O)C3=C(C)[C@@H](OC(=O)[C@H](O)C(NC(=O)C4CCC4)c4ccccc4)C[C@@](O)([C@@H](OC(=O)c4ccccc4)[C@H]21)C3(C)C (stereo partly drawn)	0.0048 µg/mL (≈ 0.00608 µM)	0.95 µg/mL (≈ 1.2 µM)	–	–	–
CC(=O)O[C@@]12CO[C@@H]1C[C@H](O)[C@@]1(C)C(=O)[C@H](O)C3=C(C)[C@@H](OC(=O)[C@H](O)C(NC(=O)c4ccccc4)c4ccccc4)C[C@@](O)([C@@H](OC(=O)c4ccccc4)[C@H]21)C3(C)C (stereo partly drawn)	0.015 µg/mL (≈ 0.0185 µM)	0.88 µg/mL (≈ 1.08 µM)	–	–	–
CC(=O)O[C@H]1C(=O)[C@@]2(C)[C@H]([C@H](OC(=O)c3ccccc3)[C@]3(O)C[C@H](OC(=O)[C@H](O)[C@@H](NC(=O)c4ccccc4)c4ccccc4)C(C)=C1C3(C)C)[C@]1(OC(C)=O)CO[C@@H]1C[C@@H]2O (mixture of isomers) [PACLITAXEL]	–	–	132%	138%	0.026 µg/mL
CCCCCC(=O)NC(c1ccccc1)[C@@H](O)C(=O)O[C@H]1C[C@@]2(O)[C@@H](OC(=O)c3ccccc3)[C@@H]3[C@]4(OC(C)=O)CO[C@@H]4C[C@H](O)[C@@]3(C)C(=O)[C@H](O)C(=C1C)C2(C)C (stereo partly drawn)	0.0017 µg/mL (≈ 0.00211 µM)	0.24 µg/mL (≈ 0.298 µM)	–	–	–
CC(=O)O[C@H]1C[C@@H]2OC[C@@]2(OC(C)=O)[C@H]2[C@H](OC(C)=O)[C@]3(O)C[C@H](OC(=O)CC(c4ccccc4)N(C)C)C(C)=C([C@@H](OC(=O)c4ccccc4)[C@H](OC(C)=O)[C@]12C)C3(C)C (stereo partly drawn)	> 10 µg/mL	7.8 µg/mL (≈ 9.2 µM)	–	–	–
